Data published in PubChem BioAssay (NCI).
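Cultured in 96-well plates, cells were exposed to test compound for 48 hours across five concentrations. TGI: total growth inhibition.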

What was measured:
Assay in all cases: NCI anticancer screen, dose series, 48 h
[1] = system: HCC-2998 colon
[2] = system: HCT-116 colon
[3] = system: K-562 leukemia
[4] = system: KM12 colon
[5] = system: MDA-MB-435
[6] = system: MOLT-4 leukemia
[7] = system: NCI-H23 lung
[8] = system: NCI-H460 lung
[9] = system: SF-295 CNS
[10] = system: SK-OV-3 ovarian

SMILES	TGI [1]	TGI [2]	TGI [3]	TGI [4]	TGI [5]	TGI [6]	TGI [7]	TGI [8]	TGI [9]	TGI [10]
Nc1nc(Cl)cc(NCC2(CO)CC(Cc3ccccc3)C2)n1 (stereo unspecified)	> 88.6 µM	> 100 µM	> 81.6 µM	> 100 µM	> 78.1 µM	> 71.4 µM	> 100 µM	> 100 µM	> 100 µM	> 100 µM
CCOC(=O)c1cc(C2(OC)CCN(Cc3ccccc3)C2=O)c(-c2cc(C)no2)[nH]1 (stereo unspecified)	> 100 µM	> 100 µM	> 100 µM	> 100 µM	> 100 µM	> 100 µM	> 100 µM	> 100 µM	> 100 µM	> 100 µM
N#C/C(N)=C(\C#N)N=CNc1ccccc1N	> 100 µM	> 100 µM	> 100 µM	> 100 µM	> 100 µM	> 100 µM	> 100 µM	> 100 µM	> 100 µM	> 100 µM
Cc1cccc(C(O)c2ccccn2)c1O (stereo unspecified)	> 100 µM	> 100 µM	> 100 µM	> 100 µM	> 100 µM	> 100 µM	> 100 µM	> 100 µM	> 100 µM	
O=C1NCN(c2ccccc2)C12CCN(CCCSc1ccc(F)cc1)CC2	67.2 µM	28.5 µM	> 79.2 µM	65.4 µM	32.6 µM	> 100 µM	97.3 µM	> 100 µM	> 100 µM	> 100 µM
Cc1c(C)c2ccc(O)cc2[nH]c1=O	> 100 µM	> 100 µM	> 100 µM	> 100 µM	> 100 µM	> 100 µM	> 100 µM	> 100 µM	> 100 µM	
c1ccc(-c2cc(-c3cc(-c4ccccc4)no3)on2)cc1	> 100 µM	> 100 µM	49 µM	> 100 µM	> 100 µM	81.3 µM	> 100 µM	> 100 µM	> 100 µM	89.9 µM
CCNC(=O)Cc1nc2c(=O)[nH]cnc2n1C1OC(CO)C(O)C1O (stereo unspecified)	> 100 µM	> 100 µM	> 100 µM	> 100 µM	> 100 µM	> 100 µM	> 100 µM	> 100 µM	> 100 µM	> 100 µM
CCOC(=O)C1C(=O)CC(C)(O)C(C(=O)OCC)C1c1ccc(OC)cc1 (stereo unspecified)	> 100 µM	> 100 µM	> 100 µM	> 100 µM	> 100 µM	> 100 µM	> 100 µM	> 100 µM	> 100 µM	
[O-][n+]1onc2c1-c1nonc1CC2	> 100 µM	46.2 µM	> 100 µM	81.5 µM	> 100 µM	> 100 µM	61.4 µM	> 100 µM	> 100 µM	> 100 µM
C(=N/Nc1ccccn1)/c1cccnc1	> 100 µM	> 100 µM	> 100 µM	> 100 µM	> 100 µM	> 100 µM	> 100 µM	> 100 µM	> 100 µM	> 100 µM
CC(C)[C@H](NC(=O)[C@@H](O)[C@H](N)Cc1ccccc1)C(=O)N[C@@H](Cc1ccccc1)C(=O)O	> 100 µM	> 100 µM	> 100 µM	> 100 µM	> 100 µM	> 100 µM	> 100 µM	> 100 µM	> 100 µM	> 100 µM
Cc1cc2nc3c(C#N)c(-c4ccccc4)cc(Nc4cccc(C(F)(F)F)c4)n3c2cc1C	14.3 µM	10.8 µM	1.2 µM	> 100 µM	30.6 µM		> 100 µM	11.5 µM	44.6 µM	44 µM
C=C1C(=O)O[C@H]2[C@H]3O[C@@H](C[C@@H]12)[C@](C)(O)CCCC(C)=CCC[C@H]3C	23.6 µM	31.1 µM	64.7 µM	27.1 µM	15.8 µM	8.09 µM	35.3 µM	30.5 µM	31.7 µM	35.3 µM
CCOC(=O)C(SCCO)C(C(=O)OCC)n1cc(C)c(=O)[nH]c1=O (stereo unspecified)	> 78.9 µM	22.6 µM	15.8 µM	> 63.1 µM	> 56.1 µM	42.1 µM	> 78.7 µM	> 100 µM	> 100 µM	> 100 µM
CC(C)(Cc1ccccc1)Cc1cc(O)ccc1O	39.1 µM	31.6 µM	44.2 µM	32.1 µM	49.2 µM	49.5 µM	38.7 µM	37.4 µM	73.5 µM	71 µM
Cn1c(=O)c2c(nc3sc4ncccc4c(=O)n32)n(C)c1=O	> 100 µM	> 100 µM		> 100 µM	> 100 µM	> 100 µM	> 100 µM	> 100 µM	> 100 µM	> 100 µM
CC(C)(C)C1=NN=C2c3ccccc3C(=O)C21 (stereo unspecified)	> 100 µM	> 100 µM	> 100 µM	> 100 µM	> 100 µM	85 µM	> 100 µM	> 100 µM	> 100 µM	
COc1ccc(-n2nnnc2C2(Nc3ccccc3)CCN(Cc3ccccc3)CC2)cc1	14 µM	26.2 µM	15.4 µM	18.8 µM	15.4 µM		57.9 µM	42 µM	28.9 µM	86.2 µM
C/C(=C\[C@H]1C[C@@H]([C@@H]2CC[C@]34C[C@]23C=C[C@@H]2[C@@]3(C)CC=C5C[C@@H](c6ccccc6)OC[C@]5(C)[C@@H]3C[C@@H](O)[C@]24C)C(=O)O1)CO	> 26.4 µM	> 100 µM	> 100 µM	15.3 µM	> 100 µM	> 100 µM	36 µM		15.7 µM	> 61.8 µM
CC1(c2nc3cc(Cl)c(Cl)cc3[nH]2)CCC(C(=O)O)C(C)(C)O1 (stereo unspecified)	> 100 µM	> 100 µM	> 100 µM	> 100 µM	> 100 µM	> 100 µM	> 100 µM		> 100 µM	> 100 µM
